# Patent US9789101B2, “Methods and compositions for treating microbial infection using pyrroloquinone” (HELPERBY THERAPEUTICS LIMITED, priority 2010, dated 2017)
# Test system: clinically latent microorganisms
# Assay: Screening for ability to kill clinically latent microorganisms (method of WO2000028074)
# Format: cell-based
# Conditions: observed by the Applicant
# Text: International Patent Application, Publication Number WO2000028074 describes a method of screening compounds to determine their ability to kill clinically latent microorganisms. […] This observation has necessitated the development of novel antimicrobials which may be used to kill clinically latent microorganisms.
# By way of example, WO2000028074 describes a suitable method of screening compounds to determine their ability to kill clinically latent microorganisms. A typical method may include the following steps: • (1) growing a bacterial culture to stationery phase; • (2) treating the stationery phase culture with one or more antimicrobial agents at a concentration and or time sufficient to kill growing bacteria, thereby selecting a phenotypically resistant sub-population; • (3) incubating a sample of the phenotypically resistant subpopulation with one or more test compounds or agents; and • (4) assessing any antimicrobial effects against the phenotypically resistant subpopulation.
structure (smiles),measurement,value
C/C(=C\C(=O)OCCCCCCCCC(=O)O)C[C@@H]1OC[C@H](C[C@@H]2O[C@H]2[C@@H](C)[C@H](C)O)[C@@H](O)[C@H]1O [Mupirocin],activity against clinically latent microorganisms,little or no activity
